Tests used:
[1] = Dynamic vapor sorption analysis; assay type: physicochemical; settings: for weight loss under desiccant condition: 20% RH; for weight gain: 70% RH, after dehydration
Description: At 70% RH, the weight gain is 6.3% for the R enantiomer and 6.2% for the racemate (data not shown), indicating moderate hygroscopicity for both materials.

[2] = Solubility in pharmaceutical excipients, Assay 2 (heating, cooling, seeding); assay type: physicochemical; settings: supersaturated solutions seeded with crystalline substance, room temperature
Method: For each excipient, the lowest concentration at which R enantiomer or racemate of 2-Ethyl-3-methoxy-benzoic acid N′-(1-tert-butyl-butyl)-N′-(3,5-dimethyl-benzoyl)-hydrazide is insoluble in the FIG. 9 assay was identified. Suspensions of both materials at this same concentration were prepared in vials. Each sample was stirred at room temperature for ≤2.5 hr (treatment 1). As a separate experiment, test article/excipient combinations were heated in an aluminum block at 90° C. for 5 minutes, or longer as needed; indicated in FIG. 10, and allow to cool to room temperature, and seeded with a tiny amount of the same micronized substance. (treatment 2). The physical appearance was recorded at 72 hr or the indicated time (FIG. 10). In all cases, no change in color was observed. This solubility assay operates from a fully dissolved condition in which initial particle size and morphic form are irrelevant. […] Photos were taken of preparations in clear glass vials (R enantiomer under the conditions of assay 1 without heating to 90° C., and racemate after 90° C. treatment, cooling and seeding, not shown).

[3] = Intrinsic dissolution of compressed pellets in 1% Polysorbate 80; assay type: physicochemical; settings: 1% Polysorbate 80 in di-water, 37° C., up to 120 minutes
Method: Next, the intrinsic dissolution profiles of R enantiomer and racemate of 2-ethyl-3-methoxy-benzoic acid N′-(1-tert-butyl-butyl)-N′-(3,5-dimethyl-benzoyl)-hydrazide were determined using compressed pellets (7 mm diameter, 100 mg) in 1% Polysorbate 80 in Di-water at 37° C., according to the following test conditions:
Medium: 1% Polysorbate 80 in di-water (vacuum filtered thru a 0.8 μM filter)
Sampling volume: 1 mL (filtered thru 30 micron)
Analysis: HPLC (prepare standard solutions from each lot)
Sample size: n=2 pellets/test substance
After 120 minutes, it was observed that the pellets for both substances remained intact in the medium.

MDR1-MDCK cells = assay: Blood brain barrier penetration potential using MDR1-MDCK cells; assay type: in vitro ADME
Method: The test compounds were prepared as a 5 μM solution in HBSSg with a maximum DMSO concentration ≤1%. Confluent monolayers of MDR1-MDCK cells, 7 to 11 days old were prepared. The receiver well was prepared with 1% BSA in modified Hanks buffer (HBSSg), and the apical and basolateral sides were maintained at pH 7.4±0.2. Two monolayers were dosed in each direction (N=2): the apical side was dosed for (A→B) assessment and the basolateral side was dosed for (B→A) assessment. Test compound concentration was measured for both apical and basolateral sides at a time point of 120 minutes using a generic LC/MS/MS method with a minimum 4 point calibration curve. The reported values in FIG. 14: the percent recovery of the test compound from the Transwell® wells containing MDR1-MDCK cell monolayers; apparent permeability (Papp) in both directions; efflux ratio (Papp B→A)/(Papp A→B); and the blood-brain barrier penetration potential classification. […] Also, R enantiomer experiences less efflux. […] Higher blood-brain barrier penetration is a significant advantage for medical indications where central nervous system (CNS) penetration is required.

[4] = Solubility and appearance of 20 mg/mL preparations in Labrasol; assay type: physicochemical; settings: sonicated at 25-28° C.
Method: These Labrasol dosing preparations utilized micronized R enantiomer, but non-micronized racemate. To address the possibility that the non-micronized racemate specimen might bias its dissolution rate in Labrasol, an independent experiment was performed. In this experiment, the solubility and appearance of 20 mg/mL preparations of micronized and non-micronized racemate were examined. Micronized racemate (lot REH-28-9-1/PYAP-2-8-2-2M), non-micronized racemate (lot # PYAP-2-8-2-2), and micronized R enantiomer (lot # REH-28-4-2) were each suspended in Labrasol, swirled by hand, and then sonicated in a Branson 2100 table top sonicator at 25-28° C. for 3×5 min intervals and a 1×10 min interval, interspersed with swirling by hand. […] By visual inspection, the quantity of undissolved material in micronized and non-micronized racemate samples was substantially the same. […] Some larger crystal fragments remained in the non-micronized sample. Since both micronized and non-micronized samples of racemate result in similar amounts of undissovled material, it appears that the major difference between R enantiomer and racemate Labrasol preparations is the intrinsic solubility rather than the starting particle size of the solute.

[5] = Blood serum levels after oral gavage in Labrasol; assay type: in vivo, C57BL/6N:Crl mice; settings: 30 and 50 mg/kg/day, 9 and 12 days
Method: Compounds in Labrasol were administered to C57BL/6N:Crl (wild-type) mice (Charles River Laboratories) by oral gavage, the intended route of administration in humans. Dosage was set at 3, 10, 30, or 50 mg/kg/day and 2.5 mL/kg/dose (FIG. 16). Doses were administered for 9 days (first 18 females/group) or 12 days (second 18 females/group) (FIG. 16). Blood was withdrawn at 9-day and 12-day time points. Concentrations were quantified by reverse-phase HPLC.
For each concentration, the samples were prepared by adding Labrasol to solid R enantiomer or racemate in a beaker, sonicating to break up visible aggregates, and magnetic stirring until a uniform appearance was attained. The mixtures were transferred to a graduated cylinder and topped off to the requisite volume using a Labrasol rinse of the beaker. The contents of the cylinder were mixed by inversion and stirred magnetically until dosing.
Mouse blood serum levels as a function of time were measured by quantitative HPLC. […] The initial particle size differences between racemate an R enantiomer may account for a portion of the serum level differences. Also, the greater intrinsic solubility of the R enantiomer over the racemate in Labrasol may account for a portion of the serum level differences. […]

Row | Compound | weight loss under desiccant condition [1] | weight gain [1] | physical appearance of excipient solutions after seeding [2] | release from compressed pellets (intrinsic dissolution) [3] | blood-brain barrier penetration potential classification (MDR1-MDCK cells) | solubility and appearance in Labrasol [4] | blood serum levels [5] | efflux, compared (MDR1-MDCK cells) | apparent permeability (Papp), compared (MDR1-MDCK cells; A→B and B→A, 5 μM, 120 minutes)
1 | CCCC(N(NC(=O)c1cccc(OC)c1CC)C(=O)c1cc(C)cc(C)c1)C(C)(C)C (racemic) [rac-1, rac-2-ethyl-3-methoxy-benzoic acid N′-(1-tert-butyl-butyl)-N′-(3,5-dimethyl-benzoyl)-hydrazide] | did not show any significant weight loss | 6.2% | precipitation/crystallization upon seeding | under the detection limit | low | remained cloudy with suspended fine particles | substantially lower (<4-5 fold AUC) | – | –
2 | CCC[C@@H](N(NC(=O)c1cccc(OC)c1CC)C(=O)c1cc(C)cc(C)c1)C(C)(C)C [Example 1, (R)-3,5-Dimethyl-benzoic Acid N-(1-tert-butyl-butyl)-N′-(2-ethyl-3-methoxy-benzoyl)-hydrazide] | 0.9 % of total weight | 6.3% | remains fully dissolved | under the detection limit | moderately penetrating through the blood-brain barrier | readily dissolved | significantly higher blood serum levels | less efflux | more permeable than racemate in both A→B and B→A directions
